pIC50: −log10 of the molar value.
Columns and labels:
[1] = target: T1, 1-deoxy-D-xylulose 5-phosphate reductoisomerase (Escherichia coli K-12, UniProt P45568); assay: Inhibition of recombinant Escherichia coli DXR
T1 sequence (P45568 whole entry): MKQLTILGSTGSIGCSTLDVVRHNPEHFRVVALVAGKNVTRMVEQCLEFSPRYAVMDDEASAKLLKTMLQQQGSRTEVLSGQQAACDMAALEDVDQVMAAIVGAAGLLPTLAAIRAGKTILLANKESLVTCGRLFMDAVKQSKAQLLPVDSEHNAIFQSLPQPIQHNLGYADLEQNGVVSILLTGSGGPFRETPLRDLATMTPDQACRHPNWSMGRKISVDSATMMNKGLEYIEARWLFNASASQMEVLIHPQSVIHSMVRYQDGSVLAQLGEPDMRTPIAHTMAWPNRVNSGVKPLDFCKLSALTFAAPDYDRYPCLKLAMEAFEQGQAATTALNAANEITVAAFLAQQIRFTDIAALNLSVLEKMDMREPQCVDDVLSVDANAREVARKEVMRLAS

Plasmodium falciparum [2] = assay: Antimalarial activity against Plasmodium falciparum Dd2; type: functional, organism-based
Plasmodium falciparum [3] = assay: Antimalarial activity against Plasmodium falciparum 3D7; type: functional, organism-based

O=CN(O)CCC(c1ccc(Cl)c(Cl)c1)P(=O)(O)O (stereo not given)
pIC50 [1]: 7.23 | pIC50 (Plasmodium falciparum [2]): 7.55 | pIC50 (Plasmodium falciparum [3]): 7.05

COc1ccc(C(CCN(O)C=O)P(=O)(O)O)cc1 (stereo not given)
pIC50 [1]: 6.81 | pIC50 (Plasmodium falciparum [2]): 6.70 | pIC50 (Plasmodium falciparum [3]): 6.44

O=CN(O)CCCP(=O)(O)O [FOSMIDOMYCIN]
pIC50 (Plasmodium falciparum [2]): 6.44 | pIC50 (Plasmodium falciparum [3]): 5.96

CC(=O)N(O)CCC(c1ccc(Cl)cc1)P(=O)(O)O (stereo not given)
pIC50 [1]: 7.00 | pIC50 (Plasmodium falciparum [2]): 7.02 | pIC50 (Plasmodium falciparum [3]): 6.46

CC(=O)N(O)CCC(c1ccc(Cl)c(Cl)c1)P(=O)(O)O (stereo not given)
pIC50 [1]: 6.92 | pIC50 (Plasmodium falciparum [2]): 7.05 | pIC50 (Plasmodium falciparum [3]): 6.60

CC(=O)N(O)CCC(c1ccccc1)P(=O)(O)O (stereo not given)
pIC50 (Plasmodium falciparum [2]): 6.46 | pIC50 (Plasmodium falciparum [3]): 6.26

CC(=O)N(O)CCC(c1ccc(C)cc1)P(=O)(O)O (stereo not given)
pIC50 [1]: 6.40 | pIC50 (Plasmodium falciparum [2]): 6.66 | pIC50 (Plasmodium falciparum [3]): 6.02

CC(=O)N(O)CCCP(=O)(O)O [FR-900098]
pIC50 [1]: 7.52 | pIC50 (Plasmodium falciparum [2]): 6.74 | pIC50 (Plasmodium falciparum [3]): 6.49

COc1ccc(C(CCN(O)C(C)=O)P(=O)(O)O)cc1 (stereo not given)
pIC50 [1]: 6.34 | pIC50 (Plasmodium falciparum [2]): 6.57 | pIC50 (Plasmodium falciparum [3]): 6.07

Reference: ChEMBL document CHEMBL1146140 (Bioorg Med Chem Lett, 2006)
